Measured values from patent publication US11464770B2, “Anticancer pharmaceutical composition” (NATIONAL CANCER CENTER, priority 2016, dated 2022).
Like-named read-outs stand apart in the source and are kept apart here.

System: pancreatic cancer cell lines (e.g. MIA PaCa-2)
Assay: Cell based assay, cell viability (CellTiter-Glo), pancreatic cancer cell lines
Conditions: Homo sapiens
Procedure: Commercially available bladder cancer, prostate cancer, lung cancer, breast cancer, blood cancer, pancreatic cancer, colorectal cancer, brain cancer, neuroblastoma, melanoma, liver cancer, cervical carcinoma, ovarian cancer, renal cancer, and papilloma cell lines were each treated with trypsin-EDTA and cultured, followed by being seeded in each well of a 96 well plate. After 24 hours of treatment at constant temperature, the respective cells were treated with the candidate compound so that a final concentration became 0 to 2 μM. The treated cells were additionally cultured for 72 hours, and cell viability was measured by using an ATP detection method (CellTiter-Glo® Luminescent Cell Viability Assay, Promega).

[1] = pancreatic cancer cell line AsPC-1, 72 hours, read-out: IC50, AsPC-1
[2] = pancreatic cancer cell line BxPC-3, 72 hours, read-out: IC50, BxPC-3
[3] = pancreatic cancer cell line CFPAC-1, 72 hours, read-out: IC50, CFPAC-1
[4] = pancreatic cancer cell line Capan-1, 72 hours, read-out: IC50, Capan-1
[5] = pancreatic cancer cell line Capan-2, 72 hours, read-out: IC50, Capan-2
[6] = pancreatic cancer cell line MIA PaCa-2, 72 hours, read-out: IC50, MIA PaCa-2
[7] = pancreatic cancer cell line PANC-1, 72 hours, read-out: IC50, PANC-1

SMILES | IC50 [1] | IC50 [2] | IC50 [3] | IC50 [4] | IC50 [5] | IC50 [6] | IC50 [7]
CC(=O)c1c(SCc2cccc(I)c2)[nH]c2c(Br)ccc(Cl)c2c1=O [Compound 47, 3-acetyl-8-bromo-5-chloro-2-((3-iodobenzyl)thio)quinolin-4(1H)-one] | > 2 µM | > 2 µM | > 10 µM | > 2 µM | > 2 µM | > 2 µM | > 2 µM
CC(=O)c1c([S+]([O-])Cc2cccc(I)c2)[nH]c2c(Br)ccc(Cl)c2c1=O (stereo not drawn) [Compound 48, 3-acetyl-8-bromo-5-chloro-2-((3-iodobenzyl)sulfinyl)quinolin-4(1H)-one] | > 2 µM | > 2 µM | > 10 µM | > 2 µM | > 2 µM | > 2 µM | > 2 µM
CC(=O)c1c(SCc2cccc(F)c2)[nH]c2c(Br)ccc(Cl)c2c1=O [Compound 49, 3-acetyl-8-bromo-5-chloro-2-((3-fluorobenzyl)thio)quinolin-4(1H)-one] | > 2 µM | > 2 µM | > 10 µM | > 2 µM | > 2 µM | > 2 µM | > 2 µM
CC(=O)c1c(SCc2ccccc2)nc2c(Br)ccc(Cl)c2c1O [Compound 52, 1-(2-(benzylthio)-8-bromo-5-chloro-4-hydroxyquinolin-3-yl)ethan-1-one] | > 2 µM | > 2 µM | > 10 µM | > 2 µM | > 2 µM | > 2 µM | > 2 µM
CC(=O)c1c([S+]([O-])Cc2ccccc2)nc2c(Br)ccc(Cl)c2c1O (stereo not drawn) [Compound 53, 1-(2-(benzylsulfinyl)-8-bromo-5-chloro-4-hydroxyquinolin-3-yl)ethan-1-one] | > 2 µM | > 2 µM | > 10 µM | > 2 µM | > 2 µM | > 2 µM | > 2 µM
CC(=O)c1c(S(=O)(=O)Cc2ccccc2)nc2c(Br)ccc(Cl)c2c1O [Compound 54, 1-(2-(benzylsulfonyl)-8-bromo-5-chloro-4-hydroxyquinolin-3-yl)ethan-1-one] | > 2 µM | > 2 µM | > 10 µM | > 2 µM | > 2 µM | > 2 µM | > 2 µM
CC(=O)c1c([S+]([O-])Cc2ccccc2C#N)[nH]c2c(Br)ccc(Cl)c2c1=O (stereo not drawn) [Compound 58, 2-(((3-acetyl-8-bromo-5-chloro-4-oxo-1,4-dihydroquinolin-2-yl)sulfinyl)methyl)benzonitrile] | > 2 µM | > 2 µM | > 10 µM | > 2 µM | > 2 µM | 0.81 µM | > 2 µM
COCSc1[nH]c2c(Br)ccc(Cl)c2c(=O)c1C(C)=O [Compound 61, 3-acetyl-8-bromo-5-chloro-2-((methoxymethyl)thio)quinolin-4(1H)-one] | > 2 µM | > 2 µM | > 10 µM | > 2 µM | > 2 µM | > 2 µM | > 2 µM
CC(=O)c1c(S)[nH]c2c(Br)ccc(Cl)c2c1=O [Compound 62, 3-acetyl-8-bromo-5-chloro-2-mercaptoquinolin-4(1H)-one] | > 2 µM | > 2 µM | > 10 µM | > 2 µM | > 2 µM | > 2 µM | > 2 µM
CC(=O)c1c([S+]([O-])Cc2ccc(C(=O)c3ccccc3)cc2)[nH]c2c(Br)ccc(Cl)c2c1=O (stereo not drawn) [Compound 63, 3-acetyl-2-((4-benzoylbenzyl)sulfinyl)-8-bromo-5-chloroquinolin-4(1H)-one] | > 2 µM | > 2 µM | > 10 µM | > 2 µM | > 2 µM | > 2 µM | > 2 µM
CC(=O)c1c([S+]([O-])CC#N)[nH]c2c(Br)ccc(Cl)c2c1=O (stereo not drawn) [Compound 65, 2-((3-acetyl-8-bromo-5-chloro-4-oxo-1,4-dihydroquinolin-2-yl)sulfinyl)acetonitrile] | > 2 µM | > 2 µM | > 10 µM | > 2 µM | > 2 µM | > 2 µM | > 2 µM
CC(=O)c1c(SCC#N)[nH]c2c(Br)ccc(Cl)c2c1=O [Compound 66, 2-((3-acetyl-8-bromo-5-chloro-4-oxo-1,4-dihydroquinolin-2-yl)thio)acetonitrile] | > 2 µM | > 2 µM | > 10 µM | > 2 µM | > 2 µM | > 2 µM | > 2 µM
CC(=O)c1c(S/C=C\C(=O)O)[nH]c2c(Br)ccc(Cl)c2c1=O [Compound 67, (Z)-3-((3-acetyl-8-bromo-5-chloro-4-oxo-1,4-dihydroquinolin-2-yl)thio)acrylic acid] | > 2 µM | > 2 µM | > 10 µM | > 2 µM | > 2 µM | > 2 µM | > 2 µM
CC(=O)c1c([S+]([O-])Cc2ccc(S(F)(F)(F)(F)F)cc2)[nH]c2c(Br)ccc(Cl)c2c1=O (stereo not drawn) [Compound 68, 3-acetyl-8-bromo-5-chloro-2-((4-(pentafluoro-16-sulfanyl)benzyl)sulfinyl)quinolin-4(1H)-one] | > 2 µM | > 2 µM | > 10 µM | > 2 µM | > 2 µM | 1.12 µM | > 2 µM
CC(=O)c1c([S+]([O-])Cc2ccc(S(F)(F)(F)(F)F)cc2F)[nH]c2c(Br)ccc(Cl)c2c1=O (stereo not drawn) [Compound 69, 3-acetyl-8-bromo-5-chloro-2-((2-fluoro-4-(pentafluoro-16-sulfanyl)benzyl)sulfinyl)quinolin-4(1H)-one] | > 2 µM | > 2 µM | > 10 µM | > 2 µM | > 2 µM | 1.37 µM | > 2 µM
CC(=O)c1c([S+]([O-])Cc2cccc(S(F)(F)(F)(F)F)c2)[nH]c2c(Br)ccc(Cl)c2c1=O (stereo not drawn) [Compound 77, 3-acetyl-8-bromo-5-chloro-2-((3-(pentafluoro--sulfanyl)benzyl)sulfinyl)quinolin-4(1H)-one] | > 2 µM | > 2 µM | > 10 µM | > 2 µM | > 2 µM | 1.39 µM | > 2 µM

The remaining lines, values ahead:

IC50 [1] | IC50 [2] | IC50 [3] | IC50 [4] | IC50 [5] | IC50 [6] | IC50 [7] | SMILES
> 2 µM | > 2 µM | > 10 µM | > 2 µM | > 2 µM | > 2 µM | > 2 µM | CC(=O)c1c(SCc2ccc([N+](=O)[O-])cc2)[nH]c2c(Br)ccc(Cl)c2c1=O [Compound 32, 3-acetyl-8-bromo-5-chloro-2-((4-nitrobenzyl)thio)quinolin-4(1H)-one]
> 2 µM | > 2 µM | > 10 µM | > 2 µM | > 2 µM | > 2 µM | > 2 µM | CSc1c(C(C)=O)c(=O)c2c(Cl)ccc(Br)c2n1S(C)(=O)=O [Compound 35, 3-acetyl-8-bromo-5-chloro-1-(methylsulfonyl)-2-(methylthio)quinolin-4(1H)-one]
> 2 µM | > 2 µM | > 10 µM | > 2 µM | > 2 µM | > 2 µM | > 2 µM | CC(=O)c1c([S+](C)[O-])n(S(=O)(=O)C(F)(F)F)c2c(Br)ccc(Cl)c2c1=O (stereo not drawn) [Compound 36, 3-acetyl-8-bromo-5-chloro-2-(methylsulfinyl)-1-((trifluoromethyl)sulfonyl)quinolin-4(1H)-one]
> 2 µM | > 2 µM | > 10 µM | > 2 µM | > 2 µM | > 2 µM | > 2 µM | CSc1c(C(C)=O)c(=O)c2c(Cl)ccc(Br)c2n1S(=O)(=O)c1ccc(Cl)cc1 [Compound 37, 3-acetyl-8-bromo-5-chloro-1-((4-chlorophenyl)sulfonyl)-2-(methylthio)quinolin-4(1H)-one]
> 2 µM | > 2 µM | > 10 µM | > 2 µM | > 2 µM | > 2 µM | > 2 µM | CSc1c(C(C)=O)c(=O)c2c(Cl)ccc(Br)c2n1S(=O)(=O)c1ccc([N+](=O)[O-])cc1 [Compound 38, 3-acetyl-8-bromo-5-chloro-2-(methylthio)-1-((4-nitrophenyl)sulfonyl)quinolin-4(1H)-one]
> 2 µM | > 2 µM | > 10 µM | > 2 µM | > 2 µM | > 2 µM | > 2 µM | CCS(=O)(=O)n1c([S+](C)[O-])c(C(C)=O)c(=O)c2c(Cl)ccc(Br)c21 (stereo not drawn) [Compound 39, 3-acetyl-8-bromo-5-chloro-1-(ethylsulfonyl)-2-(methylsulfinyl)quinolin-4(1H)-one]
> 2 µM | > 2 µM | > 10 µM | > 2 µM | > 2 µM | > 2 µM | > 2 µM | CSc1c(C(C)=O)c(=O)c2c(Cl)ccc(Br)c2n1S(=O)(=O)c1ccc(C(C)(C)C)cc1 [Compound 40, 3-acetyl-8-bromo-1-((4-(tert-butyl)phenyl)sulfonyl)-5-chloro-2-(methylthio)quinolin-4(1H)-one]
> 2 µM | > 2 µM | > 10 µM | > 2 µM | > 2 µM | > 2 µM | > 2 µM | CC(=O)c1c(S(C)(=O)=O)n(S(=O)(=O)c2ccc(C(C)(C)C)cc2)c2c(Br)ccc(Cl)c2c1=O [Compound 41, 3-acetyl-8-bromo-1-((4-(tert-butyl)phenyl)sulfonyl)-5-chloro-2-(methylsulfonyl)quinolin-4(1H)-one]
> 2 µM | > 2 µM | > 10 µM | > 2 µM | > 2 µM | > 2 µM | > 2 µM | CC(=O)c1c([S+](C)[O-])n(S(=O)(=O)c2ccc(C(C)(C)C)cc2)c2c(Br)ccc(Cl)c2c1=O (stereo not drawn) [Compound 42, 3-acetyl-8-bromo-1-((4-(tert-butyl)phenyl)sulfonyl)-5-chloro-2-(methylsulfinyl)quinolin-4(1H)-one]
> 2 µM | > 2 µM | > 10 µM | > 2 µM | > 2 µM | > 2 µM | > 2 µM | CC(=O)c1c(SCc2cc(Cl)ccc2Cl)[nH]c2c(Br)ccc(Cl)c2c1=O [Compound 43, 3-acetyl-8-bromo-5-chloro-2-((2,5-dichlorobenzyl)thio)quinolin-4(1H)-one]
> 2 µM | > 2 µM | > 10 µM | > 2 µM | > 2 µM | > 2 µM | > 2 µM | CC(=O)c1c(SCc2cc(F)cc(F)c2)[nH]c2c(Br)ccc(Cl)c2c1=O [Compound 45, 3-acetyl-8-bromo-5-chloro-2-((3,5-difluorobenzyl)thio)quinolin-4(1H)-one]
